In patent publication US9724355B2, “Fulvestrant compositions and methods of use” (SHIMODA BIOTECH (PTY) LTD, priority 2010, dated 2017):

Assay: Fulvestrant aqueous solubility in the presence and absence of cyclodextrins (excess drug, shaken 24 h, filtered, HPLC)
Format: physicochemical
Conditions: for True Fulvestrant Concentration: 22° C., 24 h; for Average Concentration / Quantity of Fulvestrant Diluted Run 1 / Quantity of Fulvestrant Diluted Run 2: diluted sample
Protocol: The HPLC system used for the chromatographic determination of fulvestrant consisted of a Waters 600E quaternary gradient pump, a Waters 717plus WISP auto-sampler and a Waters 2487 Dual A, Absorbance detector. Separation was performed using a Phenomenex Luna C18 column (250×4.6 mm; 5 urn) (Phenomenex, Torrance, Calif.) (supplied by Separations, South Africa) and a mobile phase consisting of 50% MeCN:22.5% ddH2O :27.5% MeOH. The mobile phase was degassed and filtered prior to use. […] Sample run times were 15 minutes. The UV detector wavelength was set to 280 nm.
(§1) 1 mL of each of the following aqueous solutions was prepared containing 0; 25; 50; 75 and 100 mg/mL ACD in ddHiO. Excess fulvestrant was added to each of these solutions and the samples were shaken for 24 hours on an orbital shaker at 200 rpm and at 22° C. room temperature. Excess fulvestrant was present in all samples at all times. After 24-hours, the samples were filtered through 0.45 μm syringe tip filters, diluted according to requirements and assayed by HPLC.
as §1, with “5; 7.5; 10” for “25; 50; 75”, “15” for “100”, “BCD” for “ACD”, “ddH2O.” for “ddHiO.”
as §1, with “0;” for “0; 25;”, “100; 150; 200; 250; 300; 350” for “75”, “400” for “100”, “MBCD” for “ACD”, “ddH2O.” for “ddHiO.”
as §1, with “0;” for “0; 25;”, “100; 150; 200; 250; 300; 350” for “75”, “400” for “100”, “HPBCD” for “ACD”, “ddH2O.” for “ddHiO.”
as §1, with “0;” for “0; 25;”, “100; 150; 200; 250; 300; 350” for “75”, “400” for “100”, “SBEBCD” for “ACD”, “ddH2O.” for “ddHiO.”
as §1, with “0;” for “0; 25;”, “100; 150;” for “75”, “200” for “100”, “GCD” for “ACD”, “ddHO.” for “ddHiO.”
as §1, with “0;” for “0; 25;”, “100; 150; 200; 250; 300; 350” for “75”, “400” for “100”, “HPGCD” for “ACD”, “ddH2O.” for “ddHiO.”

Compound: C[C@]12CC[C@@H]3c4ccc(O)cc4C[C@@H](CCCCCCCCC[S+]([O-])CCCC(F)(F)C(F)(F)F)[C@H]3[C@@H]1CC[C@@H]2O (stereo partly drawn) [Fulvestrant, 7-alpha-[9-(4,4,5,5,5-pentafluoropentylsulphinyl)nonyl]estra-1,3,5-(10)-triene-3,17-beta-diol]
- True Fulvestrant Concentration (0 mg/mL ACD in ddH2O): <0.010 mg/mL
- Average Concentration (0 mg/mL ACD): <10.00 µg/mL
- Quantity of Fulvestrant Diluted Run 1 (0 mg/mL ACD): <10.000 µg/mL
- Quantity of Fulvestrant Diluted Run 2 (0 mg/mL ACD): <10.010 µg/mL
- True Fulvestrant Concentration (0 mg/mL BCD in ddH2O): <0.010 mg/mL
- Average Concentration (0 mg/mL BCD): <10.00 µg/mL
- Quantity of Fulvestrant Diluted Run 1 (0 mg/mL BCD): <10.000 µg/mL
- Quantity of Fulvestrant Diluted Run 2 (0 mg/mL BCD): <10.000 µg/mL
- True Fulvestrant Concentration (0 mg/mL GCD in ddH2O): <0.010 mg/mL
- Average Concentration (0 mg/mL GCD): <10.00 µg/mL
- Quantity of Fulvestrant Diluted Run 1 (0 mg/mL GCD): <10.000 µg/mL
- Quantity of Fulvestrant Diluted Run 2 (0 mg/mL GCD): <10.000 µg/mL
- True Fulvestrant Concentration (0 mg/mL HPBCD in ddH2O): <0.010 mg/mL
- Average Concentration (0 mg/mL HPBCD): <10.00 µg/mL
- Quantity of Fulvestrant Diluted Run 1 (0 mg/mL HPBCD): <10.00 µg/mL
- Quantity of Fulvestrant Diluted Run 2 (0 mg/mL HPBCD): <10.00 µg/mL
- True Fulvestrant Concentration (0 mg/mL HPGCD in ddH2O): <0.010 mg/mL
- Average Concentration (0 mg/mL HPGCD): <10.00 µg/mL
- Quantity of Fulvestrant Diluted Run 1 (0 mg/mL HPGCD): <10.00 µg/mL
- Quantity of Fulvestrant Diluted Run 2 (0 mg/mL HPGCD): <10.00 µg/mL
- True Fulvestrant Concentration (0 mg/mL MBCD in ddH2O): <0.010 mg/mL
- Average Concentration (0 mg/mL MBCD): <10.00 µg/mL
- Quantity of Fulvestrant Diluted Run 1 (0 mg/mL MBCD): <10.00 µg/mL
- Quantity of Fulvestrant Diluted Run 2 (0 mg/mL MBCD): <10.00 µg/mL
- Average Concentration (0 mg/mL SBEBCD): <10.00 µg/mL
- Quantity of Fulvestrant Diluted Run 1 (0 mg/mL SBEBCD): <10.00 µg/mL
- Quantity of Fulvestrant Diluted Run 2 (0 mg/mL SBEBCD): <10.00 µg/mL
- True Fulvestrant Concentration (5 mg/mL BCD in ddH2O): <0.010 mg/mL
- Average Concentration (5 mg/mL BCD): <10.00 µg/mL
- Quantity of Fulvestrant Diluted Run 1 (5 mg/mL BCD): <10.000 µg/mL
- Quantity of Fulvestrant Diluted Run 2 (5 mg/mL BCD): <10.000 µg/mL
- True Fulvestrant Concentration (10 mg/mL BCD in ddH2O): <0.010 mg/mL
- Average Concentration (10 mg/mL BCD): <10.00 µg/mL
- Quantity of Fulvestrant Diluted Run 1 (10 mg/mL BCD): <10.000 µg/mL
- Quantity of Fulvestrant Diluted Run 2 (10 mg/mL BCD): <10.000 µg/mL
- True Fulvestrant Concentration (15 mg/mL BCD in ddH2O): 0.013 mg/mL
- Average Concentration (15 mg/mL BCD): 13.00 µg/mL
- Quantity of Fulvestrant Diluted Run 1 (15 mg/mL BCD): 13.060 µg/mL
- Quantity of Fulvestrant Diluted Run 2 (15 mg/mL BCD): 12.940 µg/mL
- True Fulvestrant Concentration (25 mg/mL ACD in ddH2O): 0.033 mg/mL
- Average Concentration (25 mg/mL ACD): 33.30 µg/mL
- Quantity of Fulvestrant Diluted Run 1 (25 mg/mL ACD): 33.620 µg/mL
- Quantity of Fulvestrant Diluted Run 2 (25 mg/mL ACD): 32.970 µg/mL
- True Fulvestrant Concentration (50 mg/mL ACD in ddH2O): 0.111 mg/mL
- Average Concentration (50 mg/mL ACD): 110.74 µg/mL
- Quantity of Fulvestrant Diluted Run 1 (50 mg/mL ACD): 110.600 µg/mL
- Quantity of Fulvestrant Diluted Run 2 (50 mg/mL ACD): 110.880 µg/mL
- True Fulvestrant Concentration (50 mg/mL GCD in ddH2O): 0.011 mg/mL
- Average Concentration (50 mg/mL GCD): 10.62 µg/mL
- Quantity of Fulvestrant Diluted Run 1 (50 mg/mL GCD): 10.700 µg/mL
- Quantity of Fulvestrant Diluted Run 2 (50 mg/mL GCD): 10.530 µg/mL
- True Fulvestrant Concentration (50 mg/mL HPBCD in ddH2O): 0.210 mg/mL
- Average Concentration (50 mg/mL HPBCD): 20.95 µg/mL
- Quantity of Fulvestrant Diluted Run 1 (50 mg/mL HPBCD): 21.09 µg/mL
- Quantity of Fulvestrant Diluted Run 2 (50 mg/mL HPBCD): 20.81 µg/mL
- True Fulvestrant Concentration (50 mg/mL HPGCD in ddH2O): 0.037 mg/mL
- Average Concentration (50 mg/mL HPGCD): 38.32 µg/mL
- Quantity of Fulvestrant Diluted Run 1 (50 mg/mL HPGCD): 38.66 µg/mL
- Quantity of Fulvestrant Diluted Run 2 (50 mg/mL HPGCD): 37.97 µg/mL
- True Fulvestrant Concentration (50 mg/mL MBCD in ddH2O): 0.750 mg/mL
- Average Concentration (50 mg/mL MBCD): 74.99 µg/mL
- Quantity of Fulvestrant Diluted Run 1 (50 mg/mL MBCD): 74.61 µg/mL
- Quantity of Fulvestrant Diluted Run 2 (50 mg/mL MBCD): 75.37 µg/mL
- True Fulvestrant Concentration (50 mg/mL SBEBCD in ddH2O): 0.077 mg/mL
- Average Concentration (50 mg/mL SBEBCD): 77.30 µg/mL
- Quantity of Fulvestrant Diluted Run 1 (50 mg/mL SBEBCD): 76.98 µg/mL
- Quantity of Fulvestrant Diluted Run 2 (50 mg/mL SBEBCD): 77.61 µg/mL
- True Fulvestrant Concentration (75 mg/mL ACD in ddH2O): 0.310 mg/mL
- Average Concentration (75 mg/mL ACD): 310.32 µg/mL
- Quantity of Fulvestrant Diluted Run 1 (75 mg/mL ACD): 310.460 µg/mL
- Quantity of Fulvestrant Diluted Run 2 (75 mg/mL ACD): 310.170 µg/mL
- True Fulvestrant Concentration (100 mg/mL ACD in ddH2O): 1.683 mg/mL
- Average Concentration (100 mg/mL ACD): 168.26 µg/mL
- Quantity of Fulvestrant Diluted Run 1 (100 mg/mL ACD): 162.660 µg/mL
- Quantity of Fulvestrant Diluted Run 2 (100 mg/mL ACD): 173.850 µg/mL
- True Fulvestrant Concentration (100 mg/mL GCD in ddH2O): <0.010 mg/mL
- Average Concentration (100 mg/mL GCD): <10.00 µg/mL
- Quantity of Fulvestrant Diluted Run 1 (100 mg/mL GCD): <10.000 µg/mL
- Quantity of Fulvestrant Diluted Run 2 (100 mg/mL GCD): <10.000 µg/mL
- True Fulvestrant Concentration (100 mg/mL HPBCD in ddH2O): 0.483 mg/mL
- Average Concentration (100 mg/mL HPBCD): 48.30 µg/mL
- Quantity of Fulvestrant Diluted Run 1 (100 mg/mL HPBCD): 48.32 µg/mL
- Quantity of Fulvestrant Diluted Run 2 (100 mg/mL HPBCD): 48.27 µg/mL
- True Fulvestrant Concentration (100 mg/mL HPGCD in ddH2O): 0.107 mg/mL
- Average Concentration (100 mg/mL HPGCD): 116.27 µg/mL
- Quantity of Fulvestrant Diluted Run 1 (100 mg/mL HPGCD): 116.80 µg/mL
- Quantity of Fulvestrant Diluted Run 2 (100 mg/mL HPGCD): 115.74 µg/mL
- True Fulvestrant Concentration (100 mg/mL MBCD in ddH2O): 3.021 mg/mL
- Average Concentration (100 mg/mL MBCD): 302.06 µg/mL
- Quantity of Fulvestrant Diluted Run 1 (100 mg/mL MBCD): 302.12 µg/mL
- Quantity of Fulvestrant Diluted Run 2 (100 mg/mL MBCD): 301.99 µg/mL
- True Fulvestrant Concentration (100 mg/mL SBEBCD in ddH2O): 0.167 mg/mL
- Average Concentration (100 mg/mL SBEBCD): 167.10 µg/mL
- Quantity of Fulvestrant Diluted Run 1 (100 mg/mL SBEBCD): 167.7 µg/mL
- Quantity of Fulvestrant Diluted Run 2 (100 mg/mL SBEBCD): 166.49 µg/mL
- True Fulvestrant Concentration (150 mg/mL GCD in ddH2O): <0.010 mg/mL
- Average Concentration (150 mg/mL GCD): <10.00 µg/mL
- Quantity of Fulvestrant Diluted Run 1 (150 mg/mL GCD): <10.000 µg/mL
- Quantity of Fulvestrant Diluted Run 2 (150 mg/mL GCD): <10.000 µg/mL
- True Fulvestrant Concentration (150 mg/mL HPBCD in ddH2O): 0.937 mg/mL
- Average Concentration (150 mg/mL HPBCD): 93.66 µg/mL
- Quantity of Fulvestrant Diluted Run 1 (150 mg/mL HPBCD): 93.82 µg/mL
